Legend:
Type in all cases: cell-based, human
[1] = system: cobblestone area-forming cells (CAFC); experiment: Cobblestone area-forming cell (CAFC) assay, limiting dilution on M2-10B4 stromal cells; conditions: limiting dilution; mean ± SEM of three independent experiments
Method: (§1) Colony-forming cell (CFC) were assayed by plating 5×10^2 cells per dish in semisolid media and were counted after 14 days as described (Araki et al., 2009, Id.). The number of cobble stone area-forming cell (CAFC) was quantitated in primary and expanded CD34+ cells by plating in limiting dilution onto irradiated M2-10B4 stromal cells as described (Araki et al., 2009, Id.; Conneally et al., 1997, Proc. Natl. Acad. Sci. USA. 94: 9836-9841; Taswell, 1981, J. Immunol. 126: 1614-1619).
(§2) In order to determine the a correlation between expansion of CD34^+CD90^+ cells and their functional potential as pluripotent hematopoietic stem cells, in vitro functional assays were performed, including assessment of colony-forming cells (CFC), a short-term assay, and cobblestone-area forming cells (CAFC), a long-term assay.

[2] = system: colony-forming cells (CFC); experiment: Colony-forming cell (CFC) assay of CMA expanded CB cells; conditions: mean ± SEM of three independent experiments
Method: as §1, §2

[3] = system: cord blood-derived CD34+CD90+ cells; experiment: Ex vivo expansion culture of cord blood CD34+ cells with chromatin modifying agents, flow cytometry for CD34/CD90; conditions: for cells co-expressing CD34+ and CD90+ / fold expansion of CD34+CD90+ cells / expansion of CD34+CD90+ cells (in words): 9 days of culture; for cells co-expressing CD34+ and CD90+: cytokines (SCF, Flt3-ligand, TPO, IL-3) plus CMA, FIG. 1A; for fold expansion of CD34+CD90+ cells: cytokines plus CMA; for fold expansion of CD34+CD90+ cells / expansion of CD34+CD90+ cells (in words): FIG. 1B; for CD34+CD90+ (%): mean ± SEM of three independent experiments
From the text: Freshly collected human CB was obtained from the New York Blood Center (New York, N.Y.) according to Institutional Review Board guidelines. Low density CB cells (<1.077 g/ml) were obtained by density centrifugation on Ficoll-Paque PLUS (GE Healthcare Bio-Sciences AB, Uppsala, Sweden), from which CD34^+ cells were immunomagnetically isolated by the MACS CD34 progenitor isolation kit (Miltenyi Biotech, Inc., Auburn, Calif.) as described in Araki et al., 2009, Exp Hematol. 37: 1084-1095). The purity of isolated CD34^+ cells routinely ranged from 90-99%.
CD34^+ cell expansion culture with or without CMA was carried out as described (Araki et al., 2009, Id.; Araki et al. 2006, Exp Hematol. 34: 140-149; Araki et al, 2007, Blood 109: 3570-3578.). All other HDAC inhibitors including 1 mM VPA (Sigma), TSA (5 ng/mL), NA (5 mM) or 5 μM of Suberoylanilide hydroxamic acid (SAHA; BioVision, Inc. Mountain View, Calif.) was added twice at 0 hr and after changing media at 48 hrs of culture. HDAC inhibitors were added only once (48 hr) when used in combination with a DNMT inhibitor as described (Araki et al., 2009, Id.; Araki et al., 2006, Id.; Himburg et al., 2010, Nat. Med. 16: 475-482).
Flow cytometric analysis was carried out as described (Araki et al., 2009, Id.; Araki et al. 2006, Id.; Araki et al, 2007, Id.). All antibodies were purchased from BD Bioscience (San Jose, Calif.). All analyses were paired with the corresponding matched isotype control and at least 10,000 live cells were acquired for each analysis (CellQuest software, Becton Dickinson).
In order to compare the effects of various chromatin modifying agents (CMAs) on the degree of expansion of cord blood-derived, primitive subpopulation of CD34^+ cells, valproic acid (VPA), trichostatin A (TSA), nicotinic acid (NA), suberoylanilide hydroxamic acid (SAHA) or 5-aza-2′-deoxycytidine (5azaD) as single agents or in combination was tested in vitro. The results of fluorescence-activated cell sorting experiments performed on cord blood-derived CD34^+/CD90^+ cells treated with CMA agents is shown in FIG. 1A.

Nc1ncn([C@H]2C[C@H](O)[C@@H](CO)O2)c(=O)n1 [5azaD, 5-aza-2′-deoxycytidine]
CAFC Frequency/10^4 cells [1]: 21.73 ± 14.57 /10^4 cells | CFC PE (%) (Colony Forming Cell Plating Efficiency) [2]: 8.70 ± 1.37% | cells co-expressing CD34+ and CD90+ [3]: 2% | fold expansion of CD34+CD90+ cells [3]: 1.2±0.5 fold | CD34+CD90+ (%) [3]: 2.33 ± 0.60%

O=C(O)c1cccnc1 [NA, nicotinic acid]
cells co-expressing CD34+ and CD90+ [3]: 6% | fold expansion of CD34+CD90+ cells [3]: 2.1 fold | expansion of CD34+CD90+ cells (in words) [3]: did not promote the expansion

O=C(CCCCCCC(=O)Nc1ccccc1)NO [SAHA, suberoylanilide hydroxamic acid]
cells co-expressing CD34+ and CD90+ [3]: 3% | fold expansion of CD34+CD90+ cells [3]: 1.2 fold | expansion of CD34+CD90+ cells (in words) [3]: did not promote the expansion

CC(/C=C/C(=O)NO)=C\[C@@H](C)C(=O)c1ccc(N(C)C)cc1 [TSA, trichostatin A]
CAFC Frequency/10^4 cells [1]: 6.39 ± 4.81 /10^4 cells | CFC PE (%) (Colony Forming Cell Plating Efficiency) [2]: 4.97 ± 0.39% | cells co-expressing CD34+ and CD90+ [3]: 5% | fold expansion of CD34+CD90+ cells [3]: 7.8±3.5 fold | CD34+CD90+ (%) [3]: 5.60 ± 0.29^¤ %
